# Measurements as given in publication PMC13013135, “[^99mTc]Tc-PSMA-HSG for PSMA-targeted Hybrid Surgical Guidance: a new addition to the PSMA-I&S/I&T family” (European Journal of Nuclear Medicine and Molecular Imaging, 2025).
# Tests used:
# [1] = target: PSMA (Homo sapiens, UniProt Q04609); test: Radioguided surgery (RGS) with gamma probe, ex vivo fluorescence microscopy; format: in vivo; set-up: Five patients with a diagnosis of initial (n = 4) or biochemical recurrence of (n = 1) histologically proven prostate cancer; from tissue; host or cells: prostate cancer patients: primary tumour, lymph nodes, resected tissue sections
# Description: Radioguided open surgery was performed the day after tracer injection by an experienced urologic surgeon (DW; more than 20 years of surgical experience) in collaboration with a nuclear medicine physician. Using a conventional gamma probe (C-Trak®, SanuC GmbH, Jahnsdorf, Germany), suspicious lymph nodes (defined as spots with signal-to-background ratios ≥ 2) were excised separately followed by pelvic lymph node dissection. […] Fresh frozen tissue sections were prepared using a standard cryosectioning protocol with 10–20 μm sections mounted for fluorescence imaging. These slides were stored on dry ice prior to fluorescence microscopy to preserve tissue integrity. Fluorescence microscopy of patient samples was performed using an Axioscan 7 slide scanner (Zeiss) equipped with a Colibri 7 LED light source and a 20×/0.8 NA Plan-Apochromat objective. Cy5 fluorescence was acquired using a filter set with excitation 640/30 nm, dichroic mirror 660 nm, and emission 690/50 nm. Image acquisition and analysis were performed using ZEN Blue 3.5 software (Zeiss). For immunohistochemical analysis, adjacent formalin-fixed, paraffin-embedded tissue sections were cut at 2 μm thickness and stained for PSMA (clone EP192 BioSB, BIOO Scientific) using a Ventana Benchmark automated platform (Bio SB, Santa Barbara, CA, USA). Conventional hematoxylin and eosin (H&E) and immunohistochemical (for PSMA) staining was performed on corresponding tissue sections to enable morphologic correlation and verification of target expression, respectively. For further information on immunhistochemical staining please refer to the Supplementary Material.
# [2] = tested on: LNCaP xenograft bearing NSG mice; test: Small animal SPECT/CT with 2-PMPA blocking; format: in vivo, mouse; conditions: 1 nmol peptide, 1 µmol 2-PMPA, SPECT/CT 2–4 h p.i.
# Description: SPECT/CT images were acquired using an Albira Si PET/SPECT/CT (Bruker Biospin Corporation, Woodbridge, CT, USA) instrument. Mice were injected with the respective ^99mTc-labeled tracer (24–34 MBq; the injected peptide amount was kept constant at 1 nmol/animal), with (blocking) or without (control) coinjection of 226 µg (1 µmol) 2-PMPA. […] For SPECT imaging, static acquisitions of 2 h (accumulation of 1–2 × 10^6 events) were acquired with the following parameters: photopeak at 140 keV ± 30%, axial FOV 82.5 mm using a single pinhole collimator. For reconstruction, an ordered subset expectation-maximization algorithm (OSEM) with two iterations was used, and scatter correction was applied. For CT, the following parameters were used: 400 µA intensity and 35 kV voltage, 600 projections. Images were reconstructed using a filtered back-projection (FBP) algorithm with de-ringing correction. Fused representative SPECT/CT images were acquired using the PMOD software (PMOD technologies, version 3.709, Zurich, Switzerland).
# [3] = in vivo; conditions: male, NSG, mouse, iv, 1 nmol/mouse, total radioactivity, biodistribution
# Description: As documented in the literature, engineered PC3-Pip cells express particularly high PSMA levels, which are not representative for the situation in human tumors (mean number of PSMA binding sites = 4.9 × 10^6 sites/cell for PC3-Pip cells vs. 5.9 × 10^5 sites/cell for LNCaP [60]). Thus, to correlate quantitative data with in vivo/ex vivo fluorescence signals, a biodistribution study was conducted under the same conditions as the fluorescence imaging. NSG mice bearing PC3-Pip (PSMA+) and PC3 WT (PSMA-) xenografts on opposite shoulders received [^99mTc]Tc-PSMA-HSG (1 nmol), and biodistribution was assessed at 2 h p.i. (Supplementary Table 1). The overall distribution matched previous data from LNCaP-bearing mice (Table 3), but tumor uptake was over twice as high (26.6 ± 5.0%iD/g). Low uptake in PC3 WT tumors (1.6 ± 0.3%iD/g) confirmed PSMA-specificity.
# PC-3 PIP xenografts were established by subcutaneous injection of 5 × 10^6 PC3-PIP cells/mouse using 8–12-week-old male NSG mice (in-house breeding, Dpt. of Oncology, University of Lausanne) as previously described. Tumors reached a size of 4-8 mm in diameter after 5-6 days and were then immediately used for the fluorescence imaging studies.
# [4] = tested on: human serum; test: Plasma protein binding (B50), ultrafiltration, human serum; format: in vitro ADME
# Description: (§1) A detailed experimental procedure is provided in the Supplementary Material. […] Briefly, protein solutions (maximum concentration: […] Samples were briefly vortexed and incubated for 30 min at 37 °C. […] The filter units were then removed from the centrifugal tubes and washed twice with 300 µL PBS to recover the protein fraction. The activity in the filtrate, filter and protein fraction were then quantified using a γ-counter. […] The percentages of radioligand bound to the respective proteins are represented as means ± standard deviation (SD) of three independent experiments.
# [5] = Lipophilicity, modified shake-flask method; format: physicochemical
# Description: The lipophilicity of [^99mTc]Tc-PSMA-HSG was determined via a modified shake-flask method as described.
# [6] = target: human serum albumin (HSA) (Homo sapiens, UniProt P02768); test: Plasma protein binding (B50), ultrafiltration, HSA; format: in vitro ADME
# Description: as §1
# [7] = exploratory cohort, five patients
# Chain of PSMA (Q04609 whole entry): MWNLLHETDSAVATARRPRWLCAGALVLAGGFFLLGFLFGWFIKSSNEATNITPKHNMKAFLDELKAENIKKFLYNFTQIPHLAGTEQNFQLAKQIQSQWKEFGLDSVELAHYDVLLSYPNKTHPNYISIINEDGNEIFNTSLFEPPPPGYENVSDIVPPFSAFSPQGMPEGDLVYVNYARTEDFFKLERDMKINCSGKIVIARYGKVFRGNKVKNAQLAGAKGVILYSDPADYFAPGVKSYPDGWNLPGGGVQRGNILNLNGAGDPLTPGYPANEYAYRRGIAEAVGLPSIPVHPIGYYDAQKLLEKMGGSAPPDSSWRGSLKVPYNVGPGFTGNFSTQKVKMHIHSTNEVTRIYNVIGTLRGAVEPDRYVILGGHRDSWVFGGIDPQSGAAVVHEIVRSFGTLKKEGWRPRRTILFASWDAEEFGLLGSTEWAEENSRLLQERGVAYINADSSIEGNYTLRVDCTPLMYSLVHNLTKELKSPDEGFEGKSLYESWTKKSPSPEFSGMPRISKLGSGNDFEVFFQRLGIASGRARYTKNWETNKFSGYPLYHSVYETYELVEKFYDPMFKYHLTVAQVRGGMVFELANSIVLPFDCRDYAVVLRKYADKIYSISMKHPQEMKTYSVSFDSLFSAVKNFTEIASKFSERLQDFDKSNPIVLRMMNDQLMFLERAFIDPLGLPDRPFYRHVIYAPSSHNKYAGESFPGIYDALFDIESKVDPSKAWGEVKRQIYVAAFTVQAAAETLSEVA
# Chain of human serum albumin (HSA) (P02768 25-609): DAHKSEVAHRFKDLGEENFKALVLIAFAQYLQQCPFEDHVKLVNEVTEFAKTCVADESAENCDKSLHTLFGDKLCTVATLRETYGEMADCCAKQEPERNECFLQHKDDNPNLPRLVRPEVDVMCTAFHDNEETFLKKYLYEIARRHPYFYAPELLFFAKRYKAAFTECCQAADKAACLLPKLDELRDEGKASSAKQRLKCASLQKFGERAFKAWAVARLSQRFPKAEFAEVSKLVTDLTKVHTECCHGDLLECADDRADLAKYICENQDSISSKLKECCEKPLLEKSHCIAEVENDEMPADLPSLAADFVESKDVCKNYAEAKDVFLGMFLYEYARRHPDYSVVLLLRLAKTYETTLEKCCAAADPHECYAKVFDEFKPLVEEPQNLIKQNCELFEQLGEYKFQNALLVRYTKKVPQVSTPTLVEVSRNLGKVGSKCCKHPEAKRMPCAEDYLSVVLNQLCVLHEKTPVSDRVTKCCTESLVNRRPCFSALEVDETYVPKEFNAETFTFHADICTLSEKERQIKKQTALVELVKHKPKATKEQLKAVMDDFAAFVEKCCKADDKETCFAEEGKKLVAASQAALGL
structure (smiles),measurement,setting,value
"C[N+]1=C(/C=C/C=C/C=C2/N(CCCCCC(=O)NCCCC[C@@H](NC(=O)[C@@H](CO)NC(=O)[C@@H](CO)NC(=O)[C@@H](CO)NC(=O)CS)C(=O)N[C@H](Cc3ccc(O)cc3)C(=O)N[C@H](Cc3ccc4ccccc4c3)C(=O)N[C@H](CCCCNC(=O)CCCCCCC(=O)NCCCC[C@H](NC(=O)N[C@@H](CCC(=O)O)C(=O)O)C(=O)O)C(=O)O)c3ccc(S(=O)(=O)[O-])cc3C2(C)C)C(C)(C)c2cc(S(=O)(=O)O)ccc21 [[^99mTc]Tc-PSMA-HSG, metal not drawn]","RGS, ex vivo activity, left external iliac LN",[1]; Patient #1,190 cps
same,"RGS, ex vivo activity, right external iliac LN",[1]; Patient #1,230 cps
same,"RGS, in vivo activity measurements","[1]; Patient #1, 53 µg",intraoperative detection feasible; after resection no further tracer accumulation detected
same,"RGS, in and ex vivo activity measurements","[1]; Patient #2, 53 µg",In and ex vivo activity measurements: No positive LN
same,"RGS, in and ex vivo activity measurements","[1]; Patient #3, 53 µg",In and ex vivo activity measurements: No positive LN
same,"RGS, ex vivo activity, right iliac LN (2 adjacent LNs)",[1]; Patient #4,20 cps
same,"RGS, ex vivo activity, right iliac LN (first listed)",[1]; Patient #4,50 cps
same,"RGS, ex vivo activity, right iliac LN (last listed)",[1]; Patient #4,15 cps
same,"RGS, in vivo activity measurements","[1]; Patient #4, 350 µg",No detection of tracer-positive lesions
same,"specificity of uptake in resected lymph nodes, fluorescence microscopy","[1]; Patient #4, 350 µg",highly PSMA-specific
same,"RGS, in and ex vivo activity measurements","[1]; Patient #5, 250 µg",In and ex vivo activity measurements: No positive LN
same,NPV of RGS,[1]; [7],100%
same,PPV of RGS,[1]; [7],100%
same,sensitivity of RGS (abstract: selectivity),[1]; [7],100%
same,specificity of RGS,[1]; [7],100%
same,"lymph node metastases in tracer-avid lesions, intraoperative gamma detection",[1]; in vivo,6/6
same,true negative lymph nodes identified by RGS,[1]; patient sub-cohort,53/53
same,true positive lymph nodes identified by RGS,[1]; patient sub-cohort,4/4
same,"PSMA-specificity of tumor uptake, coinjection of 2-PMPA",[2],successfully blocked tumor accumulation
same,tissue uptake at 2 h,[3]; PC3-Pip tumor,26.6 ± 5 %ID/g
same,tissue uptake at 2 h,[3]; PC3 WT tumor,1.6 ± 0.3 %ID/g
same,tissue uptake at 2 h,[3]; blood,2.8 ± 0.4 %ID/g
same,tissue uptake at 2 h,[3]; heart,1.5 ± 0.3 %ID/g
same,tissue uptake at 2 h,[3]; intestines,0.9 ± 0.1 %ID/g
same,tissue uptake at 2 h,[3]; kidneys,100 ± 8.2 %ID/g
same,tissue uptake at 2 h,[3]; liver,2.9 ± 0.5 %ID/g
same,tissue uptake at 2 h,[3]; lung,4.1 ± 1.2 %ID/g
same,tissue uptake at 2 h,[3]; muscle,0.6 ± 0.1 %ID/g
same,tissue uptake at 2 h,[3]; pancreas,0.9 ± 0.2 %ID/g
same,tissue uptake at 2 h,[3]; salivary glands,2.2 ± 0.4 %ID/g
same,tissue uptake at 2 h,[3]; spleen,8.2 ± 0.7 %ID/g
same,tissue uptake at 2 h,[3]; stomach,1.5 ± 0.1 %ID/g
same,B50 HS,[4],220 ± 35
same,logD,[5],-2.94
same,B50 HSA,[6],273 ± 36
